PubChem BioAssay AID200 (DTP/NCI, 2004)
Several values for one entry are separate records, joined by “and”; a condition that tells them apart may be missing. Identical values can stand only once. Toxic doses and inconclusive results are not listed. Where a SMILES comes first, the peptide text is derived from it.

Test system: B6C3F1 mice, B16 melanoma ip, median survival T/C
Assay: NCI In Vivo Anticancer Drug Screen. Data for tumor model B16 Melanoma (intraperitoneal) in B6C3F1 mice
Details: endpoint: median survival time, higher = longer survival
In short: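 Transplantable tumor in mice; treated vs vehicle control groups; survival or tumor size measured; value = T/C ratio.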

[1] = dose: 10.0 mg/kg/injection, schedule: Q01DX009 (ip), vehicle: saline with Tween-80
[2] = dose: 12.5 mg/kg/injection, schedule: Q01DX009 (ip), vehicle: saline with Tween-80
[3] = dose: 12.5 mg/kg/injection, schedule: Q01DX009 (ip), vehicle: saline
[4] = dose: 25.0 mg/kg/injection, schedule: Q01DX009 (ip), vehicle: saline with Tween-80
[5] = dose: 25.0 mg/kg/injection, schedule: Q01DX009 (ip), vehicle: saline
[6] = dose: 50.0 mg/kg/injection, schedule: Q01DX009 (ip), vehicle: saline with Tween-80
[7] = dose: 50.0 mg/kg/injection, schedule: Q01DX009 (ip), vehicle: saline
[8] = dose: 100.0 mg/kg/injection, schedule: Q01DX009 (ip), vehicle: saline with Tween-80
[9] = dose: 200.0 mg/kg/injection, schedule: Q01DX009 (ip), vehicle: saline with Tween-80
[10] = dose: 12.5 mg/kg/injection, schedule: Q01DX009 (ip), vehicle: Klucel (hydroxypropylcellulose) (HPC)
[11] = dose: 25.0 mg/kg/injection, schedule: Q01DX009 (ip), vehicle: Klucel (hydroxypropylcellulose) (HPC)
[12] = dose: 50.0 mg/kg/injection, schedule: Q01DX009 (ip), vehicle: Klucel (hydroxypropylcellulose) (HPC)
[13] = dose: 100.0 mg/kg/injection, schedule: Q01DX009 (ip), vehicle: Klucel (hydroxypropylcellulose) (HPC)
[14] = dose: 200.0 mg/kg/injection, schedule: Q01DX009 (ip), vehicle: Klucel (hydroxypropylcellulose) (HPC)
[15] = dose: 400.0 mg/kg/injection, schedule: Q01DX009 (ip), vehicle: saline with Tween-80
[16] = dose: 400.0 mg/kg/injection, schedule: Q01DX009 (ip), vehicle: Klucel (hydroxypropylcellulose) (HPC)
[17] = dose: 20.0 mg/kg/injection, schedule: Q01DX009 (ip), vehicle: saline with Tween-80
[18] = dose: 40.0 mg/kg/injection, schedule: Q01DX009 (ip), vehicle: saline with Tween-80
[19] = dose: 6.25 mg/kg/injection, schedule: Q01DX009 (ip), vehicle: Klucel (hydroxypropylcellulose) (HPC)

## Cc1ccc([NH-])c([NH-])c1.[Cl][Pt+2][Cl]
dose: 0.63 mg/kg/injection, schedule: Q01DX009 (ip), vehicle: saline with Tween-80
  T/C: 114 % of control
dose: 5.0 mg/kg/injection, schedule: Q01DX009 (ip), vehicle: saline with Tween-80
  T/C: 157 % of control
[1]
  T/C: 160 % of control

## N=C(N)c1ccc(/C=C/c2ccc(C(=N)N)cc2)cc1
dose: 16.0 mg/kg/injection, schedule: Q01DX009 (ip), vehicle: Klucel (hydroxypropylcellulose) (HPC)
  T/C: 101 % of control
dose: 32.0 mg/kg/injection, schedule: Q01DX009 (ip), vehicle: Klucel (hydroxypropylcellulose) (HPC)
  T/C: 116 % of control
dose: 32.0 mg/kg/injection, schedule: Q01DX009 (ip), vehicle: saline with Tween-80
  T/C: 101 % of control
dose: 64.0 mg/kg/injection, schedule: Q01DX009 (ip), vehicle: Klucel (hydroxypropylcellulose) (HPC)
  T/C: 97 % of control
dose: 64.0 mg/kg/injection, schedule: Q01DX009 (ip), vehicle: saline with Tween-80
  T/C: 101 % of control

## CCCCCC#CC1OC12CCCCC2 (centres undefined)
[2]
  T/C: 100 % of control
[3]
  T/C: 99 % of control
[4]
  T/C: 100 % of control
[5]
  T/C: 105 % of control
[6]
  T/C: 108 % of control
[7]
  T/C: 104 % of control
[8]
  T/C: 100 % of control
dose: 100.0 mg/kg/injection, schedule: Q01DX009 (ip), vehicle: saline
  T/C: 97 % of control
[9]
  T/C: 93 % of control
dose: 200.0 mg/kg/injection, schedule: Q01DX009 (ip), vehicle: saline
  T/C: 95 % of control

## ClCC[N+]12CC[N+](CCCl)(CC1)C2
dose: 12.5 mg/kg/injection, schedule: Q01DX009 (ip), vehicle: water
  T/C: 98 % of control
dose: 25.0 mg/kg/injection, schedule: Q01DX009 (ip), vehicle: water
  T/C: 114 % of control
dose: 50.0 mg/kg/injection, schedule: Q01DX009 (ip), vehicle: water
  T/C: 104 % of control
dose: 100.0 mg/kg/injection, schedule: Q01DX009 (ip), vehicle: water
  T/C: 108 % of control

## Cc1cc(N2C(=O)CCSC2=S)ccc1Cl
[10]
  T/C: 92 % of control and 95 % of control
[11]
  T/C: 90 % of control and 98 % of control
[12]
  T/C: 94 % of control
[13]
  T/C: 94 % of control and 98 % of control
[14]
  T/C: 90 % of control and 97 % of control

## Oc1ccc(/C=N/N=C/c2ccc(O)c(O)c2)cc1O
[4]
  T/C: 100 % of control
[6]
  T/C: 102 % of control
[8]
  T/C: 99 % of control
[9]
  T/C: 97 % of control

## NC(=S)N/N=C\c1ncccc1OCc1cccc(N)c1
dose: 12.5 mg/kg/injection, schedule: Q01DX009 (ip), vehicle: distilled water + Tween-80
  T/C: 86 % of control
[2]
  T/C: 103 % of control
dose: 25.0 mg/kg/injection, schedule: Q01DX009 (ip), vehicle: distilled water + Tween-80
  T/C: 100 % of control
[4]
  T/C: 109 % of control and 113 % of control and 106 % of control
dose: 50.0 mg/kg/injection, schedule: Q01DX009 (ip), vehicle: distilled water + Tween-80
  T/C: 114 % of control
dose: 100.0 mg/kg/injection, schedule: Q01DX009 (ip), vehicle: distilled water + Tween-80
  T/C: 108 % of control
dose: 200.0 mg/kg/injection, schedule: Q01DX009 (ip), vehicle: distilled water + Tween-80
  T/C: 118 % of control
dose: 400.0 mg/kg/injection, schedule: Q01DX009 (ip), vehicle: distilled water + Tween-80
  T/C: 99 % of control
[15]
  T/C: 113 % of control and 121 % of control

## COc1cc2cc(c1Cl)N(C)C(=O)C[C@H](OC(=O)[C@H](C)N(C)C(C)=O)[C@]1(C)O[C@H]1[C@H](C)[C@@H]1C[C@@](O)(NC(=O)O1)[C@H](OC)C=C/C=C(\C)C2
dose: 1.0 micrograms/kg/injection, schedule: Q01DX009 (ip), vehicle: saline + alcohol
  T/C: 121 % of control
dose: 2.0 micrograms/kg/injection, schedule: Q01DX005 (iv), vehicle: saline + alcohol
  T/C: 107 % of control
dose: 4.0 micrograms/kg/injection, schedule: Q01DX005 (iv), vehicle: saline + alcohol
  T/C: 106 % of control
dose: 8.0 micrograms/kg/injection, schedule: Q01DX005 (iv), vehicle: saline + alcohol
  T/C: 100 % of control and 106 % of control
dose: 64.0 micrograms/kg/injection, schedule: Q01DX005 (iv), vehicle: saline + alcohol
  T/C: 112 % of control and 113 % of control
dose: 128.0 micrograms/kg/injection, schedule: Q01DX005 (iv), vehicle: saline + alcohol
  T/C: 120 % of control
dose: 256.0 micrograms/kg/injection, schedule: Q01DX005 (iv), vehicle: saline + alcohol
  T/C: 152 % of control

## C=C(NC(=O)C(=C)NC(=O)c1csc(C2=NC3c4csc(n4)C4NC(=O)c5csc(n5)C(C(C)(O)C(C)O)NC(=O)C5CSC(=N5)/C(=C/C)NC(=O)C(C(C)O)NC(=O)c5csc(n5)C3(CC2)NC(=O)C(C)NC(=O)C(=C)NC(=O)C(C)NC(=O)C(C(C)CC)NC2C=Cc3c(C(C)O)cc(nc3C2O)C(=O)OC4C)n1)C(N)=O (centres undefined)
[10]
  T/C: 116 % of control
[11]
  T/C: 104 % of control
[12]
  T/C: 105 % of control
[13]
  T/C: 107 % of control
[14]
  T/C: 96 % of control
[16]
  T/C: 99 % of control

## C[C@H]1CCC/C=C/[C@@H]2C[C@H](O)C[C@H]2[C@H](O)/C=C/C(=O)O1
[10]
  T/C: 89 % of control
[11]
  T/C: 91 % of control
[12]
  T/C: 91 % of control

## S=C(S)N1CCCNCC1 (tested in a mixture with another compound)
[2]
  T/C: 107 % of control
[4]
  T/C: 100 % of control
[6]
  T/C: 92 % of control

## O=c1cc(-c2ccc3ccccc3n2)oc2ccc(Cl)cc12
[1]
  T/C: 99 % of control
[17]
  T/C: 101 % of control
[18]
  T/C: 95 % of control

## CCOC(=O)NC(N)=O
[6]
  T/C: 101 % of control
[8]
  T/C: 117 % of control
[9]
  T/C: 102 % of control
[15]
  T/C: 105 % of control

## [Cl][Pt+2][Cl].[NH-]c1ccc(C(=O)c2ccccc2)cc1[NH-]
[17]
  T/C: 109 % of control and 107 % of control
[18]
  T/C: 114 % of control and 116 % of control
dose: 80.0 mg/kg/injection, schedule: Q01DX009 (ip), vehicle: saline with Tween-80
  T/C: 112 % of control and 115 % of control
dose: 160.0 mg/kg/injection, schedule: Q01DX009 (ip), vehicle: saline with Tween-80
  T/C: 116 % of control
dose: 320.0 mg/kg/injection, schedule: Q01DX009 (ip), vehicle: saline with Tween-80
  T/C: 110 % of control and 121 % of control

## CCCCC(NC(=O)CNC(=O)CNC(=O)OCc1ccccc1)C(=O)O (centres undefined) (HELM PEPTIDE1{[O=C(OCc1ccccc1)[*:2]].G.G.[CCCCC(N[*:1])C(=O)O]}$$$$V2.0)
[13]
  T/C: 102 % of control
[14]
  T/C: 105 % of control
[16]
  T/C: 96 % of control

## CC(=O)OC1(C)CC(C)C(=O)C(C(O)CC2CC(=O)NC(=O)C2)C1 (centres undefined)
dose: 15.6 micrograms/kg/injection, schedule: Q01DX009 (ip), vehicle: saline
  T/C: 111 % of control
dose: 31.3 micrograms/kg/injection, schedule: Q01DX009 (ip), vehicle: saline
  T/C: 107 % of control
dose: 62.5 micrograms/kg/injection, schedule: Q01DX009 (ip), vehicle: saline
  T/C: 104 % of control
dose: 125.0 micrograms/kg/injection, schedule: Q01DX009 (ip), vehicle: saline
  T/C: 108 % of control
dose: 250.0 micrograms/kg/injection, schedule: Q01DX009 (ip), vehicle: saline
  T/C: 117 % of control

## CCOC(=O)c1c[nH]c2oc(/C=N/N3CC(CN4CCOCC4)OC3=O)cc2c1=O (centres undefined)
[3]
  T/C: 112 % of control
[5]
  T/C: 118 % of control
[7]
  T/C: 117 % of control

## COc1c(C=O)c2c(c(OC)c1OC)-c1ccc(OC)c(=O)cc1[C@@H](NC(C)=O)CC2
dose: 0.78 mg/kg/injection, schedule: Q01DX009 (ip), vehicle: Klucel (hydroxypropylcellulose) (HPC)
  T/C: 116 % of control
dose: 1.56 mg/kg/injection, schedule: Q01DX009 (ip), vehicle: Klucel (hydroxypropylcellulose) (HPC)
  T/C: 111 % of control and 121 % of control and 124 % of control
dose: 3.12 mg/kg/injection, schedule: Q01DX009 (ip), vehicle: Klucel (hydroxypropylcellulose) (HPC)
  T/C: 123 % of control and 107 % of control
[19]
  T/C: 116 % of control
[10]
  T/C: 120 % of control
dose: 12.6 mg/kg/injection, schedule: Q01DX009 (ip), vehicle: Klucel (hydroxypropylcellulose) (HPC)
  T/C: 114 % of control

## CC1=CC(=Nc2ccc(N(CCCl)CCCl)cc2)C=C(C)C1=O
[19]
  T/C: 150 % of control
[10]
  T/C: 163 % of control and 176 % of control
[11]
  T/C: 186 % of control

## NC(=O)/C=C/C(=O)c1c(Cl)cccc1Cl
dose: 0.78 mg/kg/injection, schedule: Q01DX009 (ip), vehicle: saline with Tween-80
  T/C: 100 % of control
dose: 1.56 mg/kg/injection, schedule: Q01DX009 (ip), vehicle: saline with Tween-80
  T/C: 103 % of control
dose: 3.12 mg/kg/injection, schedule: Q01DX009 (ip), vehicle: saline with Tween-80
  T/C: 90 % of control
